From US9309242B2, “Substituted pyrido[2,3-b]pyrazines as FGFR kinase inhibitors” (priority 2011, dated 2016)

How the values were obtained:
[1] = biological target: T1, Ba/F3-FGFR1-transfected cells (Homo sapiens, UniProt P11362); assay: Ba/F3-FGFR1 (minus IL3) cellular proliferation assay, Alamar Blue; assay type: cell-based
T1 construct: BAF3-FGFR1 (MIN IL3) pIC50; other: minus IL3
Outline: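 Ba/F3-FGFR1 cells (20000 per well) were exposed to compound for 24 h at 37 °C in RPMI-1640 with 10% FBS. Alamar Blue (resazurin) was then added for 4 h, and fluorescence was read at ex 540/em 590 nm.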

[2] = biological target: T2, Ba/F3-KDR-transfected cells (Homo sapiens, UniProt P35968); assay: Ba/F3-KDR (minus IL3) cellular proliferation assay, Alamar Blue; assay type: cell-based
T2 construct: BAF3-KDR (MIN IL3) pIC50; other: minus IL3
T2 sequence (P35968 whole entry, change not shown): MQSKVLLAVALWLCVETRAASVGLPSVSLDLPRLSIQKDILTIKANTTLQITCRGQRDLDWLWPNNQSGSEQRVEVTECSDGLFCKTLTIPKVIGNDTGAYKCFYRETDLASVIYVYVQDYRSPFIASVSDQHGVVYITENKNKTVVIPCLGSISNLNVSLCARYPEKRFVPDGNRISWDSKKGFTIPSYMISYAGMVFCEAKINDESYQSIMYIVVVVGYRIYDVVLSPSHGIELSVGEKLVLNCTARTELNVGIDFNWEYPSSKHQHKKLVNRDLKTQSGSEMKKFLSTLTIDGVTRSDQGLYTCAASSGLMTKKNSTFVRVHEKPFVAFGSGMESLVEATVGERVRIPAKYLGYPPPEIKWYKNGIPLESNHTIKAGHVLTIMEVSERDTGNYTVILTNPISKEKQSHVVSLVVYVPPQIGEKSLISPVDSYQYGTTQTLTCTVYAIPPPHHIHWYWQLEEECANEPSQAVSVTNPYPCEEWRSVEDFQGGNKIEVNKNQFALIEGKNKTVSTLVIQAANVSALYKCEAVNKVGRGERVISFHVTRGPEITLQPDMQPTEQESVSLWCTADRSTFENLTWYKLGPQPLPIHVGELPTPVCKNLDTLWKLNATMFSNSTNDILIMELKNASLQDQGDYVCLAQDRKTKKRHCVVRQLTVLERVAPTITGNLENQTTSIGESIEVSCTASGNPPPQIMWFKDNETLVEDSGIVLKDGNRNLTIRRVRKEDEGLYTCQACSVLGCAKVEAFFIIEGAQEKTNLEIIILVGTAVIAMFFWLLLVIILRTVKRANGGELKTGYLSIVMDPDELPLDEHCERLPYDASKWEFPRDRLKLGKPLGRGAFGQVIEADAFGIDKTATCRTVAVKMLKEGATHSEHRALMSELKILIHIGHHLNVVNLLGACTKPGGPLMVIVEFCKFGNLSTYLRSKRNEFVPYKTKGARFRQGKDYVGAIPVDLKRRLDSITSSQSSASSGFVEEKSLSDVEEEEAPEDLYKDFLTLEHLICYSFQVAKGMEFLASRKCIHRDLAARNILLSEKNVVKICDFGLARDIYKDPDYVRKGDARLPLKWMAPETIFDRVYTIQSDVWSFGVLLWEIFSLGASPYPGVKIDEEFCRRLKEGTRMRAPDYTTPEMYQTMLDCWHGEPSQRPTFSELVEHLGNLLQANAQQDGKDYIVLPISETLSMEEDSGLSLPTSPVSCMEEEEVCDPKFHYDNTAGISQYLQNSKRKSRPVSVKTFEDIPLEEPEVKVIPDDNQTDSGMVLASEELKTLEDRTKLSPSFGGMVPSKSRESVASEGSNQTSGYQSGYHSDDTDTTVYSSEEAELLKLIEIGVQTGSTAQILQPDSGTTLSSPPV
Outline: (§1)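 Ba/F3-KDR-transfected cells, 20000 per well in phenol red free RPMI-1640 with 10% FBS, exposed to compound 24 hours at 37° C, 5% CO2; Alamar Blue then added for 4 hours and fluorescence read (ex. 540 nm, em. 590 nm). Plus-IL3 counterscreen run identically with 10 ng/ml murine IL3.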

FGFR1 (h) = FGFR1 (h) (Homo sapiens, UniProt P11362); assay: FGFR1 (enzymatic assay), TR-FRET; assay type: biochemical; conditions: read-out: FGFR 1 pIC50 (converted)
Chain of FGFR1 (h) (P11362 22-822): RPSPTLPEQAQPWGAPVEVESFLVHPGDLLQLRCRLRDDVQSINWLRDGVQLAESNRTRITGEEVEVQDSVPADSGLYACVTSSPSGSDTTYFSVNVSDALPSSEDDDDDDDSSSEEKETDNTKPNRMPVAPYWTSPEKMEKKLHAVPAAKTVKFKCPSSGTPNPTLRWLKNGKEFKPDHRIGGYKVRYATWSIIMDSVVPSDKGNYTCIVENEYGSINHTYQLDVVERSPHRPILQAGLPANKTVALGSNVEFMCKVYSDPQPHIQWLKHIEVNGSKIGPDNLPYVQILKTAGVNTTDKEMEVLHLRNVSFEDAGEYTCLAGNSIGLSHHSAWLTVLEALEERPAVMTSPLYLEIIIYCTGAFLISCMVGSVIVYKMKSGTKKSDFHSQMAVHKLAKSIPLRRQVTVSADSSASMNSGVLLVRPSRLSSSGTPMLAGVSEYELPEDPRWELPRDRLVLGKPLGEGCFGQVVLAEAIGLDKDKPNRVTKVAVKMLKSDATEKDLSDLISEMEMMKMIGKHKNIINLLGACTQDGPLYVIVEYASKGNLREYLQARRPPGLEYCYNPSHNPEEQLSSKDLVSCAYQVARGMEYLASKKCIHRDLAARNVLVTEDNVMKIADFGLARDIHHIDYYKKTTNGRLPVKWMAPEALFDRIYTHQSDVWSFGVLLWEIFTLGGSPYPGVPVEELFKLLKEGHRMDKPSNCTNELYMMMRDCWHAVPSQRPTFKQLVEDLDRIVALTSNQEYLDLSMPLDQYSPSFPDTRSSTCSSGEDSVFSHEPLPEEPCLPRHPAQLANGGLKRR

[3] = system: Ba/F3-FGFR3-transfected cells; assay: Ba/F3-FGFR3 (plus IL3) cellular proliferation assay, counterscreen with 10 ng/ml murine IL3; assay type: cell-based; conditions: plus IL3 (10 ng/ml murine IL3, counterscreen); read-out: BAF3-FGFR3 (PLUS IL3) pIC50 (converted)
Outline: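 Ba/F3 cells transfected with FGFR3, 20000/well in phenol red-free RPMI-1640 with 10% FBS, exposed to compound for 24 h at 37 °C, 5% CO2. Alamar Blue (resazurin) added for 4 h more; fluorescence read at ex 540/em 590 nm. Counterscreen run the same way with 10 ng/ml murine IL3.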

[4] = biological target: Ba/F3-FGFR4-transfected cells (Homo sapiens, UniProt P22455); assay: Ba/F3-FGFR4 cellular proliferation assay, Alamar Blue; assay type: cell-based
Outline: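 Ba/F3-FGFR4 cells (20000/well) in phenol red-free RPMI-1640 with 10% FBS are exposed to compound for 24 h at 37 °C, 5% CO2. Alamar Blue (resazurin) is then added for 4 h and fluorescence read at ex 540/em 590 nm.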

[5] = system: Ba/F3-KDR-transfected cells; assay: Ba/F3-KDR (plus IL3) cellular proliferation assay, counterscreen with 10 ng/ml murine IL3; assay type: cell-based; conditions: plus IL3 (10 ng/ml murine IL3, counterscreen); read-out: BAF3-KDR (PLUS IL3) pIC50 (converted)
Outline: as §1

[6] = system: Ba/F3-FGFR1-transfected cells; assay: Ba/F3-FGFR1 (plus IL3) cellular proliferation assay, counterscreen with 10 ng/ml murine IL3; assay type: cell-based; conditions: plus IL3 (10 ng/ml murine IL3, counterscreen); read-out: BAF3-FGFR1 (PLUS IL3) pIC50 (converted)
Outline: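 Ba/F3-FGFR1 cells (20000/well) in RPMI-1640 with 10% FBS exposed to compound for 24 h at 37° C., 5% CO2, then Alamar Blue (resazurin) added for 4 h; fluorescence read at ex 540/em 590 nm. Counterscreen run identically with 10 ng/ml murine IL3.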

FGFR2 (h) = FGFR2 (h) (Homo sapiens, UniProt P21802); assay: FGFR2 (enzymatic assay), TR-FRET; assay type: biochemical; conditions: enzymatic assay; read-out: FGFR 2 pIC50 (converted)
Chain of FGFR2 (h) (P21802 22-821): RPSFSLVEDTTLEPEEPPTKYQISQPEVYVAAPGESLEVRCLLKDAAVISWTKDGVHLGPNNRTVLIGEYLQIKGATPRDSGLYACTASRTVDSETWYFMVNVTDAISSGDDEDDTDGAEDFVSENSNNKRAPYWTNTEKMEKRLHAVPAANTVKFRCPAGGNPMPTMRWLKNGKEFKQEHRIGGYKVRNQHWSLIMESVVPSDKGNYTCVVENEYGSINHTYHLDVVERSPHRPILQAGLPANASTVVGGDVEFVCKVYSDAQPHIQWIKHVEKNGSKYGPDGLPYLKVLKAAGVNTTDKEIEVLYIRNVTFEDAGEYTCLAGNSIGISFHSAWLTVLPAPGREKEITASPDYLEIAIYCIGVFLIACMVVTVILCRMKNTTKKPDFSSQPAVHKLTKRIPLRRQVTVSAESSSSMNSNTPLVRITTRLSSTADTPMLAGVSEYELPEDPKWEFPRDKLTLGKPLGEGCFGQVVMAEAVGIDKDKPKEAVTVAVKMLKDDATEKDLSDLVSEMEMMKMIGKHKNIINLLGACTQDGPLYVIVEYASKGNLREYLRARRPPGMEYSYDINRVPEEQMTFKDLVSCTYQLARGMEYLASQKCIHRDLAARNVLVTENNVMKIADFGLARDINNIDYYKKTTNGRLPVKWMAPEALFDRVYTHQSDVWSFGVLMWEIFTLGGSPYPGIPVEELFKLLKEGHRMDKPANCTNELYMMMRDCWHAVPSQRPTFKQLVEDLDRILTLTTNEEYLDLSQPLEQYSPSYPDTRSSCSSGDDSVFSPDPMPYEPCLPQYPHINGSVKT
Outline: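 Human FGFR2 (150 ng/ml) was incubated with 500 nM Btn-Flt3 substrate and 0.4 μM ATP in 50 mM HEPES pH 7.5, 6 mM MnCl2, 1 mM DTT, 0.1 mM Na3VO4, 0.01% Triton-X-100. Compound was present at 1% DMSO final.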

FGFR4 (h) = FGFR4 (h) (Homo sapiens, UniProt P22455); assay: FGFR4 (enzymatic assay), TR-FRET; assay type: biochemical; conditions: FGFR 4 pIC50, enzymatic assay
Chain of FGFR4 (h) (P22455 22-802): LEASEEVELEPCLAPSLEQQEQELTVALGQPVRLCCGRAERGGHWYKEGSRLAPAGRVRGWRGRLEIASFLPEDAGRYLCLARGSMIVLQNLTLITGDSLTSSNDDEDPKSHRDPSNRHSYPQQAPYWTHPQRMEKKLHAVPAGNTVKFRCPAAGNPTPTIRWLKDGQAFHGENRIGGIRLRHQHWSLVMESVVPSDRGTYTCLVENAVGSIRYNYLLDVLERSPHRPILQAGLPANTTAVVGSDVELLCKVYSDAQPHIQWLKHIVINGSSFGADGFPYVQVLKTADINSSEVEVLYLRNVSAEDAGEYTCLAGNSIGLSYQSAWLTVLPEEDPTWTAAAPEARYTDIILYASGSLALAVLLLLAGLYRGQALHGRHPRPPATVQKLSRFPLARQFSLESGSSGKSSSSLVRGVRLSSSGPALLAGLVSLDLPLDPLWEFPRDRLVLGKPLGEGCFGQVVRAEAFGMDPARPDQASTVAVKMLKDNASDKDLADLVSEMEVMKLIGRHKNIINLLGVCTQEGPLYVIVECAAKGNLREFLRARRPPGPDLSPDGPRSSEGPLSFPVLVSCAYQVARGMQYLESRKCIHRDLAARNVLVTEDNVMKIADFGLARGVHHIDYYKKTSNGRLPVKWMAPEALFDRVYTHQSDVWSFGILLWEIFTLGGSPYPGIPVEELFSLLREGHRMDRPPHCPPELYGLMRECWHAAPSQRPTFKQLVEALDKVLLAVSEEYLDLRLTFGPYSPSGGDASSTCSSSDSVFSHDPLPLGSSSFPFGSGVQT

T1 sequence (P11362 whole entry, change not shown): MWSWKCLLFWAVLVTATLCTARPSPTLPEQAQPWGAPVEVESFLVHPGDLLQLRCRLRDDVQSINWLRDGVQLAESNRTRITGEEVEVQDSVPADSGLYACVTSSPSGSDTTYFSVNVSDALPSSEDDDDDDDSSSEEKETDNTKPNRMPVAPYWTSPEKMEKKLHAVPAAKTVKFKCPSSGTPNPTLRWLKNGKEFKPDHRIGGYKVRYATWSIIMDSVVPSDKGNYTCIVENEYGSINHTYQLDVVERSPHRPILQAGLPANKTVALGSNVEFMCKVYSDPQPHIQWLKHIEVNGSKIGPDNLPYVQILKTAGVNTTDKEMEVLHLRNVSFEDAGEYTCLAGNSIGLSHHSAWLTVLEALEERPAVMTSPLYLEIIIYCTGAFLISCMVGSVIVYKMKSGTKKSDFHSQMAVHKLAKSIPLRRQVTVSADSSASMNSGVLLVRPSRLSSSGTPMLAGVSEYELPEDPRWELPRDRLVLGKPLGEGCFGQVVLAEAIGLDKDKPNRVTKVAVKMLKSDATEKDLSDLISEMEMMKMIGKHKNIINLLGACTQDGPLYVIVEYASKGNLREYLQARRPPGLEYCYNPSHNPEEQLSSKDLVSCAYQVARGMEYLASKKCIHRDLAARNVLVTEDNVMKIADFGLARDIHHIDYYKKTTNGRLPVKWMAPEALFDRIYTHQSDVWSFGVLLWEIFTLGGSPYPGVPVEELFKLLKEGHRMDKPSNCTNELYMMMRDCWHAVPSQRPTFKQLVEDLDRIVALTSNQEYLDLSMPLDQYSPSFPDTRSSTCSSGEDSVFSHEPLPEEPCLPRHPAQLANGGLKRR

| SMILES | BAF3-FGFR1 (MIN IL3) pIC50 [1] | BAF3-KDR (MIN IL3) pIC50 [2] | IC50 (FGFR1 (h)) | IC50 [3] | BAF3-FGFR4 pIC50 [4] | IC50 [5] | IC50 [6] | IC50 (FGFR2 (h)) | IC50 (FGFR4 (h)) |
| --- | --- | --- | --- | --- | --- | --- | --- | --- | --- |
| COc1cc(OC)c(F)c(N(Cc2nccn2CCO)c2ccc3ncc(-c4cnn(C)c4)nc3n2)c1 [Compound 145] | 7.26 | 5.63 | 3.24 nM | > 10000 nM | 6.61 | > 10000 nM | > 10000 nM | 3.8 nM | 10.5 nM |
| COc1cc(/N=c2\ccc3ncc(-c4cnn(C)c4)nc3n2CC2CCC(=O)N2)cc(OC)c1 (stereo not drawn) [Compound 248] | 6.70 | 5.76 | 5.13 nM | > 10000 nM | 6.25 | > 10000 nM | > 10000 nM | 3.63 nM | 8.13 nM |
| COc1cc(OC)cc(N(Cc2noc(C)n2)c2ccc3ncc(-c4cnn(C)c4)nc3n2)c1 [Compound 186] | 7.03 | 5.20 | 2.45 nM | > 10000 nM | 6.36 | > 10000 nM | > 10000 nM | 2.57 nM | 12 nM |
| COc1cc(OC)c(F)c(N(CCO)c2ccc3ncc(-c4cnn(CCO)c4)nc3n2)c1 [Compound 233] | 7.49 | 5.90 | 0.759 nM | > 10000 nM | 6.91 | > 10000 nM | > 10000 nM | 1.7 nM | 2.88 nM |
| COc1cc(OC)cc(N(Cc2n[nH]c(=O)o2)c2ccc3ncc(-c4cnn(C)c4)nc3n2)c1 [Compound 229] | 5.97 | <5 | 4.9 nM | > 10000 nM | 5.45 | > 10000 nM | > 10000 nM | 5.62 nM | 22.4 nM |
| COc1cc(/N=c2\ccc3ncc(-c4cnn(C)c4)nc3n2CC2CCC(=O)N2CCO)c(F)c(OC)c1 (single isomer, unassigned) [Compound 219] | 7.77 | 6.38 | 0.813 nM | > 10000 nM | 6.78 | > 10000 nM | > 10000 nM | 2.24 nM | 1.91 nM |
| COc1cc(OC)cc(N(Cc2nc(OC)cc(OC)n2)c2ccc3ncc(-c4cnn(C)c4)nc3n2)c1 [Compound 174] | 5.68 | <5 | ~39.8 nM | > 10000 nM | 5.45 | > 10000 nM | > 10000 nM | 6.92 nM | 77.6 nM |
| COc1cc(OC)c(F)c(/N=c2\ccc3ncc(-c4cnn(C)c4)nc3n2CCN(C2COC2)C2COC2)c1F [Compound 164] | 8.01 | 6.86 | 1.02 nM | > 10000 nM | ~7.66 | > 10000 nM | > 10000 nM | 1.82 nM | 0.977 nM |
| CCOCc1c[nH]c(CN(c2ccc3ncc(-c4cnn(C)c4)nc3n2)c2cc(OC)cc(OC)c2F)n1 [Compound 206] | 7.89 | 5.84 | 1.38 nM | > 10000 nM | 7.34 | > 10000 nM | > 10000 nM | 4.17 nM | 2.95 nM |
| COc1cc(OC)cc(N(Cc2nnc(N)o2)c2ccc3ncc(-c4cnn(C)c4)nc3n2)c1 [Compound 188] | 6.78 | 5.63 | 1.66 nM | > 10000 nM | 6.62 | > 10000 nM | > 10000 nM | 1.35 nM | 1.62 nM |
| COc1cc(OC)cc(N(CCO)c2ccc3ncc(-c4ccncc4)nc3n2)c1 [Compound 213] | 6.57 | 5.01 | 4.27 nM | > 10000 nM | 6.15 | > 10000 nM | > 10000 nM | 5.62 nM | 25.1 nM |
| COc1cc(OC)c(F)c(N(Cc2nc(OC)cc(OC)n2)c2ccc3ncc(-c4cnn(C)c4)nc3n2)c1 [Compound 220] | 6.32 | 5.22 | 4.17 nM | > 10000 nM | 5.83 | > 10000 nM | > 10000 nM | 6.92 nM | 29.5 nM |
| COc1cc(/N=c2\ccc3ncc(-c4cnn(C)c4)nc3n2Cc2cc(C)on2)c(F)c(OC)c1 [Compound 181] | 7.76 | 5.97 | 1.51 nM | > 10000 nM | 7.55 | > 10000 nM | > 10000 nM | 2.19 nM | 1.05 nM |
| COc1cc(/N=c2\ccc3ncc(-c4cnn(C)c4)nc3n2CCN2CCOCC2)cc(OC)c1 [Compound 147] | 7.28 | 6.17 | 1.51 nM | > 10000 nM | 6.85 | > 10000 nM | > 10000 nM | 2.04 nM | 3.24 nM |
| COc1cc(OC)c(F)c(N(Cc2n[nH]c(=O)o2)c2ccc3ncc(-c4cnn(C)c4)nc3n2)c1 [Compound 284] | 6.37 | <5 | 1.58 nM | > 10000 nM | 6.01 | > 10000 nM | > 10000 nM | 2.14 nM | 5.5 nM |
| COc1cc(/N=c2\ccc3ncc(-c4cnn(C)c4)nc3n2CCN2CCCC2=O)c(F)c(OC)c1 [Compound 156] | 7.17 | 5.52 | 2.95 nM | > 10000 nM | 6.68 | > 10000 nM | > 10000 nM | 2.69 nM | 6.92 nM |
